# Data published in ChEMBL document CHEMBL1149474, “Synthesis and receptor binding properties of chimeric peptides containing a mu-opioid receptor ligand and nociceptin/orphanin FQ receptor ligand Ac-RYYRIK-amide” (Bioorg Med Chem Lett, 2006).
# Non-standard residues stand in square brackets, D forms with d. Residues, ends and D or L forms follow the SMILES beside them. βAla = NCCC(=O)O
# Tests used:
# Mu-type opioid receptor = Mu-type opioid receptor (Rattus norvegicus, UniProt P33535); test: Displacement of [3H]DAMGO from mu opioid receptor in rat brain homogenate; type: tissue-based
# Chain of Mu-type opioid receptor (P33535 whole entry): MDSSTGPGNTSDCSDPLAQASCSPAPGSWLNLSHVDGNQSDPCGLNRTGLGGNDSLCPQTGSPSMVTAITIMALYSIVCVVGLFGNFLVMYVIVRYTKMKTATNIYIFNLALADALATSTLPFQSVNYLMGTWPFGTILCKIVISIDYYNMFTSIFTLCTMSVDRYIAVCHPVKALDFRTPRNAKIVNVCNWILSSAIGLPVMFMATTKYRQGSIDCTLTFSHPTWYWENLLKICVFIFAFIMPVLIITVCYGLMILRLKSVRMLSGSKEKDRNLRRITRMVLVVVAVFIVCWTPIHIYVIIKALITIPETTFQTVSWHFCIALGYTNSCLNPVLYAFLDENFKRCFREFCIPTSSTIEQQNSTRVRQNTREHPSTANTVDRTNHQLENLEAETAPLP
# Nociceptin receptor = Nociceptin receptor (Homo sapiens, UniProt P41146); test: Displacement of [3H]NOC from human ORL1 receptor expressed in HEK293 cells; type: cell-based
# Chain of Nociceptin receptor (P41146 whole entry): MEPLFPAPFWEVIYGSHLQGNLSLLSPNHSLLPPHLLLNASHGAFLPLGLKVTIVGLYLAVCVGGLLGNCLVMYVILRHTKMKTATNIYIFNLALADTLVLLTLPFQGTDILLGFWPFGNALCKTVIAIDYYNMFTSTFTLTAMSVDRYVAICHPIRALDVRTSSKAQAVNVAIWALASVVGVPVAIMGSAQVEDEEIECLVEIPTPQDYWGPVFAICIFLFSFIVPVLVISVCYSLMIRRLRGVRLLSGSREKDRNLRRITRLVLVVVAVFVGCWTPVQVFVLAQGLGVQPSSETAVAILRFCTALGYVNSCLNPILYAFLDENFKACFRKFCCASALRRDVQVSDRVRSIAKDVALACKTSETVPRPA
Structure (SMILES),IC50 (Mu-type opioid receptor),IC50 (Nociceptin receptor)
CC[C@H](C)[C@H](NC(=O)[C@H](CCCN=C(N)N)NC(=O)[C@H](Cc1ccc(O)cc1)NC(=O)[C@H](Cc1ccc(O)cc1)NC(=O)[C@H](CCCN=C(N)N)NC(C)=O)C(=O)N[C@@H](CCCCN)C(=O)NCC(=O)NCC(=O)NCC(=O)N[C@@H](CCCCNC(=O)CNC(=O)CNC(=O)CNC(=O)CNC(=O)CNC(=O)CCNC(=O)[C@H](Cc1ccccc1)NC(=O)[C@@H](CCCN=C(N)N)NC(=O)[C@@H](N)Cc1ccc(O)cc1)C(N)=O,0.0477 nM,0.0803 nM
CC[C@H](C)[C@H](NC(=O)[C@H](CCCN=C(N)N)NC(=O)[C@H](Cc1ccc(O)cc1)NC(=O)[C@H](Cc1ccc(O)cc1)NC(=O)[C@H](CCCN=C(N)N)NC(C)=O)C(=O)N[C@@H](CCCCN)C(=O)NCC(=O)NCC(=O)NCC(=O)N[C@@H](CCCCNC(=O)CNC(=O)CNC(=O)[C@H](CO)NC(=O)[C@@H]1CCCN1C(=O)[C@H](Cc1ccc(O)cc1)NC(=O)CNC(=O)[C@H](Cc1ccccc1)NC(=O)[C@@H](C)NC(=O)[C@@H](N)Cc1ccc(O)cc1)C(N)=O,0.00236 nM,0.0464 nM
C[C@@H](NC(=O)[C@@H](N)Cc1ccc(O)cc1)C(=O)N[C@@H](Cc1ccccc1)C(=O)NCC(=O)N[C@@H](Cc1ccc(O)cc1)C(=O)N1CCC[C@H]1C(=O)N[C@@H](CO)C(N)=O [DERMORPHIN],0.538 nM,> 10000 nM
CC[C@H](C)[C@H](NC(=O)[C@H](CCCN=C(N)N)NC(=O)[C@H](Cc1ccc(O)cc1)NC(=O)[C@H](Cc1ccc(O)cc1)NC(=O)[C@H](CCCN=C(N)N)NC(C)=O)C(=O)N[C@@H](CCCCN)C(=O)N[C@@H](CCCCNC(=O)[C@H](CO)NC(=O)[C@@H]1CCCN1C(=O)[C@H](Cc1ccc(O)cc1)NC(=O)CNC(=O)[C@H](Cc1ccccc1)NC(=O)[C@@H](C)NC(=O)[C@@H](N)Cc1ccc(O)cc1)C(N)=O,,11.6 nM
CC[C@H](C)[C@H](NC(=O)[C@H](CCCN=C(N)N)NC(=O)[C@H](Cc1ccc(O)cc1)NC(=O)[C@H](Cc1ccc(O)cc1)NC(=O)[C@H](CCCN=C(N)N)NC(C)=O)C(=O)N[C@@H](CCCCN)C(=O)N[C@@H](CCCCNC(=O)CCNC(=O)[C@H](Cc1ccccc1)NC(=O)[C@@H](CCCN=C(N)N)NC(=O)[C@@H](N)Cc1ccc(O)cc1)C(N)=O,2.76 nM,0.789 nM
CC[C@H](C)[C@H](NC(=O)[C@H](CCCN=C(N)N)NC(=O)[C@H](Cc1ccc(O)cc1)NC(=O)[C@H](Cc1ccc(O)cc1)NC(=O)[C@H](CCCN=C(N)N)NC(C)=O)C(=O)N[C@@H](CCCCN)C(N)=O,> 10000 nM,
N=C(N)NCCC[C@@H](NC(=O)[C@@H](N)Cc1ccc(O)cc1)C(=O)N[C@@H](Cc1ccccc1)C(=O)NCCC(N)=O (H-Y[dR]F[βAla]-NH2),1.18 nM,> 10000 nM
